What follows are compounds tested on CWR22RV1 cells (assay: Inhibition of proliferation of CWR22RV1 cells (CCK-8)). Conditions: Homo sapiens, CWR22Rv1, 144 h, 6 days.
Format: cell-based, human
Procedure: • CWR22RV1 cell line (Cell Bank of Chinese Academy of Sciences, TCHu100) • FBS (Gibco, Cat. No. 10099-141) • 0.01M PBS (Biosharp, Cat. No. 162262) • RIPM1640 (Hyclone, Cat. No. 308090.01) • Penicillin-Streptomycin (Hyclone, Cat. No. SV30010) • Cell counting kit-8 (Signalway Antibody, Cat. No. CP002) • DMSO (Sigma, Cat. No. D5879) • Centrifuge Tube, 15 ml (Excell Bio, Cat. No. CS015-0001) • Cell Culture Dish, (Excell Bio, Cat. No. CS016-0128) • 96-well cell culture cluster (Corning, Cat. No. 3599) • 2. Experimental method (1) Preparation of Buffer
1) CWR22RV1 cells were subcultured in cell culture medium, and the cells in good growth condition were seeded in a 96-well plate, 80 μL for each well, thus the number of cells per well was 1500, then the plate was cultured overnight in a 37° C., 5% CO2 cell incubator.
2) The drug was prepared with dimethyl sulfoxide (DMSO) as a 30 mM stock solution. Prior to use, the solution was diluted 3 times with DMSO, and then diluted with a 3-fold gradient to obtain 9 concentration gradients. Then, each concentration of the compound was further diluted 200 times with the culture solution (to ensure that DMSO concentration in the culture system was 0.1%), 2 repeat wells for each concentration. The diluted solution of each compound (20 μL) was added to the cell culture well (with a final concentration of 10 μM, 3.3 μM, 1.1 μM . . . ), and shaken gently for mixing. In addition, three negative control wells containing only cells and three blank control wells containing only culture medium (20 μL DMSO diluted 200 times with culture medium being added to six wells) were included.
(1) After culturing for 6 days, 10 μL CCK-8 was added to each well and cultured for additional 2.5 h in a 37° C., 5% CO2 cell incubator.
(2) The absorbance (OD value) at 450 nm was measured with a multifunctional microplate reader.
(3) The data was analyzed by the Dose-response-inhibition equation in the software GraphPad Prism6, and the IC50 value was obtained.

**Q.** CCS(=O)(=O)c1ccc(N2CC3(COC3)C2)c(-c2cn(C)c(=O)c3[nH]ccc23)c1 [Compound 35, 4-(5-(ethylsulfonyl)-2-(2-oxa-6-aza-spiro[3.3]heptan-6-yl)phenyl)-6-methyl-1H-pyrrolo[2,3-c]pyridin-7(6H)-one] was tested. Which IC50 did it give?
**A.** 0.44 µM

**Q.** Which IC50 does the source give for CCCCS(=O)(=O)c1ccc(N2CC3(COC3)C2)c(-c2cn(C)c(=O)c3[nH]ccc23)c1 [Compound 36, 4-(5-(butylsulfonyl)-2-(2-oxa-6-aza-spiro[3.3]heptan-6-yl)phenyl)-6-methyl-1H-pyrrolo[2,3-c]pyridin-7(6H)-one] here?
**A.** 0.56 µM

**Q.** With Cn1cc(-c2cc(S(=O)(=O)C3CC3)ccc2N2CC3(COC3)C2)c2cc[nH]c2c1=O [Compound 37, 4-(5-(cyclopropylsulfonyl)-2-(2-oxa-6-aza-spiro[3.3]heptan-6-yl)phenyl)-6-methyl-1H-pyrrolo[2,3-c]pyridin-7(6H)-one] as the compound, how does the IC50 read?
**A.** 0.49 µM

**Q.** Which IC50 does the source give for CCOC(=O)C1CC12CCN(c1ccc(S(C)(=O)=O)cc1-c1cn(C)c(=O)c3[nH]ccc13)CC2 (centres unmarked) [Compound 38, ethyl 6-(2-(6-methyl-7-oxo-6,7-dihydro-1H-pyrrolo[2,3-c]pyridin-4-yl)-4-(methylsulfonyl)phenyl)-6-azaspiro[2.5]octane-1-carboxylate] here?
**A.** 0.41 µM

**Q.** How did the IC50 turn out when Cn1cc(-c2cc(S(C)(=O)=O)ccc2N2CCC3(CC2)CC3C(=O)O)c2cc[nH]c2c1=O (centres unmarked) [Compound 39, 6-(2-(6-methyl-7-oxo-6,7-dihydro-1H-pyrrolo[2,3-c]pyridin-4-yl)-4-(methylsulfonyl)phenyl)-6-aza-spiro[2.5]octan-1-carboxylic acid] was run?
**A.** 2.41 µM

**Q.** How did the IC50 turn out when [2H]C([2H])([2H])n1cc(-c2cc(NS(=O)(=O)CC)ccc2N2CCC3(CC3)C2)c2cc[nH]c2c1=O [Compound 40, N-(3-(7-oxo-6-(trideuteromethyl)-6,7-dihydro-1H-pyrrolo[2,3-c]pyridin-4-yl)-4-(5-aza-spiro[2.4]heptan-5-yl)phenyl)ethylsulfonamide] was run?
**A.** 0.015 µM

**Q.** [2H]C([2H])([2H])n1cc(-c2cc(NS(=O)(=O)CC)ccc2N2CCCC3(CC3)C2)c2cc[nH]c2c1=O [Compound 42, N-(3-(6-trideuteromethyl-7-oxo-6,7-dihydro-1H-pyrrolo[2,3-c]pyridin-4-yl)-4-(5-aza-spiro[2.5]octan-5-yl)phenyl)ethylsulfonamide] was tested. Which IC50 did it give?
**A.** 0.03 µM

**Q.** How did the IC50 turn out when [2H]C([2H])([2H])n1cc(-c2cc(NS(=O)(=O)C3CC3)ccc2N2CC3(CCC3)C2)c2cc[nH]c2c1=O [Compound 43, N-(3-(6-trideuteromethyl-7-oxo-6,7-dihydro-1H-pyrrolo[2,3-c]pyridin-4-yl)-4-(2-aza-spiro[3.3]heptan-2-yl)phenyl)cyclopropanesulfonamide] was run?
**A.** 0.05 µM

**Q.** How did the IC50 turn out when [2H]C([2H])([2H])n1cc(-c2cc(NS(C)(=O)=O)ccc2N2CC3(CCC3)C2)c2cc[nH]c2c1=O [Compound 44, N-(3-(6-trideuteromethyl-7-oxo-6,7-dihydro-1H-pyrrolo[2,3-c]pyridin-4-yl)-4-(2-aza-spiro[3.3]heptan-2-yl)phenyl)methanesulfonamide] was run?
**A.** 0.045 µM

**Q.** How did the IC50 turn out when [2H]C([2H])([2H])n1cc(-c2cc(NS(=O)(=O)C3COC3)ccc2N2CC3(CCC3)C2)c2cc[nH]c2c1=O [Compound 45, N-(3-(6-trideuteromethyl-7-oxo-6,7-dihydro-1H-pyrrolo[2,3-c]pyridin-4-yl)-4-(2-aza-spiro[3.3]heptan-2-yl)phenyl) oxetane-3-sulfonamide] was run?
**A.** 0.11 µM

**Q.** Which IC50 does the source give for [2H]C([2H])([2H])n1cc(-c2cc(NS(=O)(=O)CCCC)ccc2N2CC3(CCC3)C2)c2cc[nH]c2c1=O [Compound 46, N-(3-(6-trideuteromethyl-7-oxo-6,7-dihydro-1H-pyrrolo[2,3-c]pyridin-4-yl)-4-(2-aza-spiro[3.3]heptan-2-yl)phenyl)butane-1-sulfonamide] here?
**A.** 0.13 µM

**Q.** Which IC50 does the source give for [2H]C([2H])([2H])n1cc(-c2cc(NS(=O)(=O)CC)ccc2N2CC3(CCC3)C2)c2cc[nH]c2c1=O [Compound 47, N-(3-(6-trideuteromethyl-7-oxo-6,7-dihydro-1H-pyrrolo[2,3-c]pyridin-4-yl)-4-(2-aza-spiro[3.3]heptan-2-yl)phenyl)ethanesulfonamide] here?
**A.** 0.05 µM

**Q.** With [2H]C([2H])([2H])n1cc(-c2cc(NS(C)(=O)=O)ccc2N2CC3(COC3)C2)c2cc[nH]c2c1=O [Compound 48, N-(3-(6-trideuteromethyl-7-oxo-6,7-dihydro-1H-pyrrolo[2,3-c]pyridin-4-yl)-4-(2-oxa-6-aza-spiro[3.3]heptan-6-yl)phenyl)methanesulfonamide] as the compound, how does the IC50 read?
**A.** 0.4 µM

**Q.** Which IC50 does the source give for [2H]C([2H])([2H])n1cc(-c2cc(NS(=O)(=O)CC)ccc2N2CC3(COC3)C2)c2cc[nH]c2c1=O [Compound 49, N-(3-(6-trideuteromethyl-7-oxo-6,7-dihydro-1H-pyrrolo[2,3-c]pyridin-4-yl)-4-(2-oxa-6-aza-spiro[3.3]heptan-6-yl)phenyl)ethanesulfonamide] here?
**A.** 0.42 µM

**Q.** [2H]C([2H])([2H])n1cc(-c2cc(NS(=O)(=O)CCCC)ccc2N2CC3(COC3)C2)c2cc[nH]c2c1=O [Compound 50, N-(3-(6-trideuteromethyl-7-oxo-6,7-dihydro-1H-pyrrolo[2,3-c]pyridin-4-yl)-4-(2-oxa-6-aza-spiro[3.3]heptan-6-yl)phenyl) butane-1-sulfonamide] was tested. Which IC50 did it give?
**A.** 0.51 µM

**Q.** How did the IC50 turn out when [2H]C([2H])([2H])n1cc(-c2cc(NS(=O)(=O)C3CC3)ccc2N2CC3(COC3)C2)c2cc[nH]c2c1=O [Compound 51, N-(3-(6-trideuteromethyl-7-oxo-6,7-dihydro-1H-pyrrolo[2,3-c]pyridin-4-yl)-4-(2-oxa-6-aza-spiro[3.3]heptan-6-yl)phenyl) cyclopropanesulfonamide] was run?
**A.** 0.49 µM

**Q.** With [2H]C([2H])([2H])n1cc(-c2cc(NS(=O)(=O)CC)ccc2N2CCC3(CC2)CC3C(=O)OCC)c2cc[nH]c2c1=O (centres unmarked) [Compound 52] as the compound, how does the IC50 read?
**A.** 0.52 µM

**Q.** How did the IC50 turn out when [2H]C([2H])([2H])n1cc(-c2cc(NS(=O)(=O)CC)ccc2N2CCC3(CC2)CC3C(=O)O)c2cc[nH]c2c1=O (centres unmarked) [Compound 53, 6-(4-(ethylsulfonamide)-2-(6-trideuteromethyl-7-oxo-6,7-dihydro-1H-pyrrolo[2,3-c]pyridin-4-yl)phenyl)-6-aza-spiro[2.5]octan-1-carboxylic acid] was run?
**A.** 0.55 µM

**Q.** With [2H]C([2H])([2H])n1cc(-c2cc(S(C)(=O)=O)ccc2N2CCC3(CC3)C2)c2cc[nH]c2c1=O [Compound 54, 6-trideuteromethyl-4-(5(methylsulfonyl)-2-(5-aza-spiro[2.4]heptan-5-yl)phenyl)-1H-pyrrolo[2,3-c]pyridin-7(6H)-one] as the compound, how does the IC50 read?
**A.** 0.018 µM

**Q.** With [2H]C([2H])([2H])n1cc(-c2cc(S(C)(=O)=O)ccc2N2CCCC3(CC3)C2)c2cc[nH]c2c1=O [Compound 57, 6-trideuteromethyl-4-(5(methylsulfonyl)-2-(5-aza-spiro[2.5]octan-5-yl)phenyl)-1H-pyrrolo[2,3-c]pyridin-7(6H)-one] as the compound, how does the IC50 read?
**A.** 0.025 µM

**Q.** How did the IC50 turn out when [2H]C([2H])([2H])n1cc(-c2cc(S(=O)(=O)C3CC3)ccc2N2CCCC3(CC3)C2)c2cc[nH]c2c1=O [Compound 58, 4-(5-(cyclopropylsulfonyl)-2-(5-aza-spiro[2.5]octan-5-yl)phenyl)-6-trideuteromethyl-1H-pyrrolo[2,3-c]pyridin-7(6H)-one] was run?
**A.** 0.05 µM

**Q.** [2H]C([2H])([2H])n1cc(-c2cc(S(=O)(=O)C3CC3)ccc2N2CC3(CCC3)C2)c2cc[nH]c2c1=O [Compound 59, 4-(5-(cyclopropylsulfonyl)-2-(2-aza-spiro[3.3]heptan-2-yl)phenyl)-6-trideuteromethyl-1H-pyrrolo[2,3-c]pyridin-7(6H)-one] was tested. Which IC50 did it give?
**A.** 0.065 µM

**Q.** For [2H]C([2H])([2H])n1cc(-c2cc(S(C)(=O)=O)ccc2N2CC3(CCC3)C2)c2cc[nH]c2c1=O [Compound 60, 6-trideuteromethyl-4-(5-(methylsulfonyl)-2-(2-aza-spiro[3.3]heptan-2-yl)phenyl)-1H-pyrrolo[2,3-c]pyridin-7(6H)-one], which IC50 is on record?
**A.** 0.039 µM

**Q.** With [2H]C([2H])([2H])n1cc(-c2cc(S(=O)(=O)C3COC3)ccc2N2CC3(CCC3)C2)c2cc[nH]c2c1=O [Compound 61, 6-trideuteromethyl-4-(5-(oxetane-3-ylsulfonyl)-2-(2-aza-spiro [3.3]heptan-2-yl)phenyl)-1H-pyrrolo[2,3-c]pyridin-7(6H)-one] as the compound, how does the IC50 read?
**A.** 0.105 µM

**Q.** Which IC50 does the source give for [2H]C([2H])([2H])n1cc(-c2cc(S(=O)(=O)CCCC)ccc2N2CC3(CCC3)C2)c2cc[nH]c2c1=O [Compound 62] here?
**A.** 0.13 µM

**Q.** How did the IC50 turn out when [2H]C([2H])([2H])n1cc(-c2cc(S(=O)(=O)CC)ccc2N2CC3(CCC3)C2)c2cc[nH]c2c1=O [Compound 63, 4-(5-(ethylsulfonyl)-2-(2-aza-spiro[3.3]heptan-2-yl)phenyl)-6-trideuteromethyl-1H-pyrrolo[2,3-c]pyridin-7(6H)-one] was run?
**A.** 0.06 µM
